Reference: patent US12084434B2 (Scorpion Therapeutics, Inc., priority 2021, dated 2024)
Like-named read-outs stand apart in the source and are kept apart here.

System: T47D pAKT (S473), PI3Kα H1047R mutation present
Assay: HTRF pAKT-T47D;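 note: assay medium was RPMI with 10% FBS and 0.2 units/ml bovine insulin, without phenol red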
[1] = read-out: T47D pAKT IC50, T47D.1 cells, pAKT (S473) HTRF, 1 hour
[2] = Homo sapiens, T47D, 1 h, read-out: T47D pAKT IC50 (nM), T47D.1 cells, pAKT (S473) HTRF, 1 hour

| SMILES | IC50 [1] [nM] | IC50 [2] [nM] |
| --- | --- | --- |
| CCc1c(C(NC(=O)Nc2cnc(N)nc2)C(F)(F)F)oc2ccc(F)cc12 (racemic) [Compound 132, 1-(2-aminopyrimidin-5-yl)-3-[1-(3-ethyl-5-fluoro-1-benzofuran-2-yl)-2,2,2-trifluoroethyl]urea] | < 1000 | – |
| CCc1c(C(NC(=O)Nc2cnc(N)nc2)C(F)(F)F)oc2ccc(F)cc12 (racemic) [Compound 133, 1-(2-aminopyrimidin-5-yl)-3-[1-(3-ethyl-5-fluoro-1-benzofuran-2-yl)-2,2,2-trifluoroethyl]urea] | > 5000 | – |
| Cc1c(C(NC(=O)Nc2cnc(N3CC(O)C3)nc2)C(F)(F)F)oc2ccc(Cl)cc12 (racemic) [Compound 153, 3-[1-(5-chloro-3-methyl-1-benzofuran-2-yl)-2,2,2-trifluoroethyl]-1-[2-(3-hydroxyazetidin-1-yl)pyrimidin-5-yl]urea] | > 5000 | – |
| Cc1c(C(NC(=O)Nc2cnc(N3CC(O)C3)nc2)C(F)(F)F)oc2ccc(Cl)cc12 (racemic) [Compound 154, 3-[1-(5-chloro-3-methyl-1-benzofuran-2-yl)-2,2,2-trifluoroethyl]-1-[2-(3-hydroxyazetidin-1-yl)pyrimidin-5-yl]urea] | < 1000 | – |
| Cc1c(C(NC(=O)Nc2cnc(N)nc2)C(F)(F)F)oc2c(F)cc(Cl)cc12 (racemic) [Compound 155, 1-(2-aminopyrimidin-5-yl)-3-[1-(5-chloro-7-fluoro-3-methyl-1-benzofuran-2-yl)-2,2,2-trifluoroethyl]urea] | > 5000 | – |
| Cc1c(C(NC(=O)Nc2cnc(N)nc2)C(F)(F)F)oc2c(F)cc(Cl)cc12 (racemic) [Compound 156, 1-(2-aminopyrimidin-5-yl)-3-[1-(5-chloro-7-fluoro-3-methyl-1-benzofuran-2-yl)-2,2,2-trifluoroethyl]urea] | < 1000 | – |
| Cc1c(C(NC(=O)Nc2cnc(N3CC(O)C3)nc2)C(F)(F)F)oc2c(F)cc(Cl)cc12 (racemic) [Compound 157, 3-[1-(5-chloro-7-fluoro-3-methyl-1-benzofuran-2-yl)-2,2,2-trifluoroethyl]-1-[2-(3-hydroxyazetidin-1-yl)pyrimidin-5-yl]urea] | < 1000 | – |
| Cc1c(C(NC(=O)Nc2cnc(N3CC(O)C3)nc2)C(F)(F)F)oc2c(F)cc(Cl)cc12 (racemic) [Compound 158, 3-[1-(5-chloro-7-fluoro-3-methyl-1-benzofuran-2-yl)-2,2,2-trifluoroethyl]-1-[2-(3-hydroxyazetidin-1-yl)pyrimidin-5-yl]urea] | > 5000 | – |
| Cc1c(C(NC(=O)Nc2ccc(N3CC(O)C3)nc2)C(F)(F)F)oc2c(F)cc(F)cc12 (racemic) [Compound 179, 3-[1-(5,7-difluoro-3-methyl-1-benzofuran-2-yl)-2,2,2-trifluoroethyl]-1-[6-(3-hydroxyazetidin-1-yl)pyridin-3-yl]urea] | > 5000 | – |
| Cc1c(C(NC(=O)Nc2ccc(N3CC(O)C3)nc2)C(F)(F)F)oc2c(F)cc(F)cc12 (racemic) [Compound 180, 3-[1-(5,7-difluoro-3-methyl-1-benzofuran-2-yl)-2,2,2-trifluoroethyl]-1-[6-(3-hydroxyazetidin-1-yl)pyridin-3-yl]urea] | < 1000 | – |
| Cc1c(C(NC(=O)Nc2cnc(N3CC(S(C)(=O)=O)C3)nc2)C(F)(F)F)oc2c(F)cc(F)cc12 (racemic) [Compound 186, 1-(1-(5,7-difluoro-3-methylbenzofuran-2-yl)-2,2,2-trifluoroethyl)-3-(2-(3-(methylsulfonyl)azetidin-1-yl)pyrimidin-5-yl)urea] | < 1000 | – |
| Cc1c([C@@H](NC(=O)Nc2cnc(N3C[C@H](O)[C@H]3C)nc2)C(C)C)oc2ccc(F)cc12 (relative stereo) [Compound 149, 3-[(1S)-1-(5-fluoro-3-methyl-1-benzofuran-2-yl)-2-methylpropyl]-1-{2-[(2R*,3R**)-3-hydroxy-2-methylazetidin-1-yl]pyrimidin-5-yl}urea] | – | < 1000 |
| Cc1c([C@@H](NC(=O)Nc2cnc(N3CC(O)C3)nc2)C(F)(F)F)oc2c(F)cc(F)cc12 (single isomer, unassigned) [Compound 91] | – | < 1000 |
| CC[C@H](NC(=O)Nc1cnc(N)nc1)c1oc2ccc(F)cc2c1C (single isomer, unassigned) [Compound 100] | – | < 1000 |
| Cc1c(C(NC(=O)Nc2cnc(N[C@H](C)CO)nc2)C(F)(F)F)oc2c(F)cc(F)cc12 (single isomer, unassigned) [Compound 187] | > 5000 | – |
| Cc1c(C(NC(=O)Nc2cnc(N[C@H](C)CO)nc2)C(F)(F)F)oc2c(F)cc(F)cc12 (single isomer, unassigned) [Compound 188] | < 1000 | – |
| Cc1c(C(NC(=O)Nc2cnc(N3CCNC(=O)C3)nc2)C(F)(F)F)oc2c(F)cc(F)cc12 (single isomer, unassigned) [Compound 189, 1-(1-(5,7-difluoro-3-methylbenzofuran-2-yl)-2,2,2-trifluoroethyl)-3-(2-(3-oxopiperazin-1-yl)pyrimidin-5-yl)urea] | < 1000 | – |

Now from value to molecule:

| IC50 [1] [nM] | IC50 [2] [nM] | SMILES |
| --- | --- | --- |
| > 5000 | – | Cc1c(C(NC(=O)Nc2cnc(N3CC4(COC4)C3)nc2)C(F)(F)F)oc2c(F)cc(F)cc12 (racemic) [Compound 171, 1-(2-(2-oxa-6-azaspiro[3.3]heptan-6-yl)pyrimidin-5-yl)-3-(1-(5,7-difluoro-3-methylbenzofuran-2-yl)-2,2,2-trifluoroethyl)urea] |
| < 1000 | – | Cc1c(C(NC(=O)Nc2cnc(N3CC4(COC4)C3)nc2)C(F)(F)F)oc2c(F)cc(F)cc12 (racemic) [Compound 172, 1-(2-(2-oxa-6-azaspiro[3.3]heptan-6-yl)pyrimidin-5-yl)-3-(1-(5,7-difluoro-3-methylbenzofuran-2-yl)-2,2,2-trifluoroethyl)urea] |
| > 5000 | – | Cc1c(C(NC(=O)Nc2cnc(N)nc2)C(F)(F)F)oc2c(Cl)cc(F)cc12 (racemic) [Compound 177, 1-(2-aminopyrimidin-5-yl)-3-[1-(7-chloro-5-fluoro-3-methyl-1-benzofuran-2-yl)-2,2,2-trifluoroethyl] urea] |
| < 1000 | – | Cc1c(C(NC(=O)Nc2cnc(N)nc2)C(F)(F)F)oc2c(Cl)cc(F)cc12 (racemic) [Compound 178, 1-(2-aminopyrimidin-5-yl)-3-[1-(7-chloro-5-fluoro-3-methyl-1-benzofuran-2-yl)-2,2,2-trifluoroethyl] urea] |
| – | 1000 to 5000 | Cc1c(C(NC(=O)Nc2cnc(N3CC(S(C)(=O)=O)C3)nc2)C(F)(F)F)oc2c(F)cc(F)cc12 (racemic) [Compound 185, 1-(1-(5,7-difluoro-3-methylbenzofuran-2-yl)-2,2,2-trifluoroethyl)-3-(2-(3-(methylsulfonyl)azetidin-1-yl)pyrimidin-5-yl)urea] |
| – | < 1000 | Cc1c([C@@H](NC(=O)Nc2cnc(N3C[C@@H](O)[C@@H]3C)nc2)C(C)C)oc2ccc(F)cc12 (relative stereo) [Compound 148, 3-[(1S)-1-(5-fluoro-3-methyl-1-benzofuran-2-yl)-2-methylpropyl]-1-{2-[(2R*,3R**)-3-hydroxy-2-methylazetidin-1-yl]pyrimidin-5-yl}urea] |
| – | < 1000 | Cc1c([C@H](NC(=O)Nc2cnc(N3CC(C)(O)C3)nc2)C(F)(F)F)oc2c(F)cc(F)cc12 (single isomer, unassigned) [Compound 93] |
